In data set [1] the test system is vandefitemcel (or SB623 cells). The experiment in a line: PrestoBlue cell viability of vandefitemcel treated with CB-839. It is filed as cell-based, human. As to conditions: incubation with CB-839, PrestoBlue HS. The procedure: Approximately 50 μL of conditioned medium (CM) was used to determine the glutamate concentration and cell viability. For this assay, PrestoBlue™ high-sensitivity (HS) Cell Viability Reagent (from Thermo Fisher Scientific, Waltham, MA) was used and the reaction absorbance of each sample was read after 2 hours of incubation following the manual procedure provided by the manufacturer.
Glutamate can be involved in cell metabolism, where it is transformed into α-ketoglutarate and then enters into the tricarboxylic acid cycle to generate ATP [25].

A further data set deals with glutamate receptor. Briefly: Glutamate receptor blockage on iFbN culture (MEA spike activity). The conditions noted are these: 50 μM. In kind it is cell-based, human. How it is done:
Glutamatergic or GABAergic neurons, 9×10^4 cells per well or 1×10^5 cells per well, were plated in 25 μL volume cell in BrainPhys™ medium supplemented with NeuroCult™ SM1 neuronal supplement and incubated for 30-45 minutes at 37° C. and 5% CO2. For coculturing, vandefitemcel (or SB623) cells or astrocytes were cocultured by adding 10-20 μL of cell solution with 1.5×10^4 cells per well following a new incubation for 45 minutes at 37° C. and 5% CO2. Fresh medium was added to reach a volume of 400 μL per well and cells incubated at 37° C. and 5% CO2. Half of the medium volume was changed every three or four days. To isolate the presynaptic activity on MEAs with iFbNs after 50 days of culture, 50 μM of the broad glutamate receptor antagonist Kynurenic acid (from R&D Systems, Minneapolis, MN) was added at 90 seconds from the start of the recording. Spike activity was assessed to detect the blockage of glutamate receptor activity.
MEA recordings were performed at 37° C. and 5% CO2 using Maestro Edge (from Axion Biosystems, Atlanta, GA). The medium was changed at least two hours before the recordings. Before recordings, levels of CO2 were adjusted to 5%. The duration of each recording was five minutes using AxIS Navigator 3.6.2 with configuration module Neural Real-Time; Spontaneous+Viability from Axion Biosystems with minimum spike rate for active electrodes of five spikes/minute.

This is an account of results in patent US20250241962A1, “METHODS AND COMPOSITIONS FOR INCREASING NEURONAL ACTIVITY AND SYNAPTIC PLASTICITY” (SanBio, Inc., priority 2024, published 2025).

Each structure is given as a SMILES string.

On to `O=C(Cc1cccc(OC(F)(F)F)c1)Nc1ccc(CCCCc2nnc(NC(=O)Cc3ccccn3)s2)nn1` [CB-839, Telaglenastat], for which the viability of vandefitemcel entry in data set [1] was “did not alter the viability”.
Take `O=C(O)c1cc(=O)c2ccccc2[nH]1` [kynurenic acid, Kynurenic acid]: in the data set on glutamate receptor, the “spike activity of iFbN culture” value was “reduction in the spike activity”.
